Measured values published in paper PMC10961402, “Safety, tolerability, pharmacokinetics and pharmacokinetic-pharmacodynamic modeling of cetagliptin in patients with type 2 diabetes mellitus” (Frontiers in Endocrinology, 2024).
Where two headings read alike, the source gives them in different places.

How the values were obtained:
Format in all cases: in vivo, human
[1] = Preliminary efficacy evaluation (FPG, 2 h PPG, HbA1c, GA); conditions: patients with T2DM; 100 mg once daily; day 14
Description: Blood samples for determination of fasting plasma glucose (FPG) and 2 hour postprandial plasma glucose (2 h PPG) were collected on day -2, day 7 and day 14. Additionally, blood samples for determination of glycated Hemoglobin A1C (HbA1c) and glycated Albumin (GA) were collected on day -2 and day 14. The changes of the above indexes relative to pre-treatment baseline (day -2) were evaluated and compared to investigate the preliminary efficacy of investigational product.

[2] = tested on: glucose, insulin, C-peptide, and glucagon; assay: Oral glucose tolerance test (OGTT): glucose, insulin, C-peptide, glucagon; conditions: patients with T2DM
Description: To assess the impact of investigational products on glucose, insulin, C-peptide, and glucagon, OGTT tests were conducted on day -1 and day 15 following a fasting period of more than 8 hours. Subjects received a 75 g oral glucose dose and blood samples (1.5 mL for glucose, 3.5 mL for insulin and C-peptide, 2 mL for glucagon) were collected at 0, 0.167, 0.5, 1, 1.5, 2, and 3 h after ingestion of glucose. The PD parameters (AUEC0-t) for glucose, insulin, C-peptide, and glucagon were calculated by using drug effect module of non-compartmental method with Phoenix WinNonlin.

[3] = Safety and tolerability assessments (adverse events); conditions: patients with T2DM, 14 days
Description: Safety and tolerability were evaluated by monitoring adverse events (AEs), laboratory tests (including blood routine, urine routine, stool routine, blood biochemical test and coagulation function), vital signs, physical examination, 12-lead electrocardiogram and other indicators. AEs were monitored and collected throughout the study. Descriptive analysis of the type and intensity of AEs were conducted according to NCICTC AE5.0.

[4] = Plasma pharmacokinetics after single and multiple oral doses (non-compartmental analysis); conditions: patients with T2DM; for AUC(0-t): po, 100 mg
Description: This was a single-center, randomized, double-blind, placebo and positive-controlled, single and multiple oral-dose study. A total of 32 Chinese adults diagnosed with T2DM were recruited for this study and allocated into two dosage groups: 50 mg and 100 mg, each consisting of 16 participants. […] The positive control was designed as open label. […] Subjects underwent medication randomization on day -1, and were assigned the corresponding investigational products. They were orally administered to the drug once every morning on fasting condition for 14 consecutive days. […] After finished the dosing, another OGTT was performed on day 15. Blood samples were collected at designated time points for the analysis of PK/PD and exploratory indicators. Subjects were discharged after completion of the safety assessments on day 19. […] PK parameters were calculated using non-compartmental analysis with Phoenix WinNonlin (version 8.1, Certara, Co., Princeton, NJ, United States). Peak plasma concentration after administration (Cmax) and time to reach Cmax (Tmax) were obtained directly from the observed data, elimination half-life (t1/2) was calculated as ln2/λz using the best fit mode, where λz was the terminal elimination rate constant. Area under the plasma concentration-time curve from zero to the last measurable concentration (AUC0-t) was estimated using the linear trapezoidal method and AUC from zero to infinity (AUC0-∞) was calculated as AUC0-t+Ct/λz, where Ct was the last measured concentration. […] Apparent total plasma clearance after non-intravenous (CL/F) and apparent volume of distribution in terminal phase after non-intravenous (Vz/F) were calculated as Dose/AUC0-∞ and CL/λz, respectively.

plasma active GLP-1 = assay: Plasma active GLP-1 concentration change from baseline (ELISA); conditions: patients with T2DM
Description: Blood samples for GLP-1 activity evaluation were collected at the same time points as for PK. 2 mL blood samples were collected for GLP-1 activity detection (20 μL DPP-4i was added to blood-collecting tubes beforehand). The tubes were placed on ice until centrifugation. The blood samples were centrifuged at 2-8°C, 1500 g for 10 minutes within 1 hour after blood collection. After centrifugation, the blood samples were evenly divided into two aliquots and stored at -80 ± 10°C. Plasma active GLP-1 concentrations were determined using a validated ELISA method. Linear calibration curves were obtained in the concentration range of 0.017-276 pM ([31]).
The change of GLP-1 concentration from baseline (△GLP-1) was calculated as follows:
Δ [GLP-1] = [GLP-1] (t) - [GLP-1] (0)
The calculated parameters for GLP-1 activity were as follows: the baseline GLP-1 value before dosing (Baseline), Rmax, TRmax, AUEC0-t, AUEC0-24h, GLP-1 concentration change at 2 h after lunch (△GLP-1-6h), GLP-1 concentration change at 2 h after dinner (△GLP-1-12h), Rmin on day 14, and the average response on day 14 (Ravg).

[5] = cetagliptin group (50 or 100 mg, n=20) / sitagliptin group (100 mg, n=8)
[6] = 100 mg oral once daily, day 14, median (range)

**Q.** Which “decrease of HbA1c compared with baseline” value [1] does the source give for `N[C@@H](CC(=O)N1CCn2c(nnc2C(F)(F)F)C1)Cc1cc(F)c(F)cc1F` [Sitagliptin, sitagliptin, reference compound] here?
**A.** 0.44%

**Q.** And the “glucose AUEC0-t (OGTT)” value ([2]; 100 mg group, day -1 (baseline before dosing))?
**A.** 44.07 ± 5.74 mmol·h/L

**Q.** What about the “glucose AUEC0-t (OGTT)” value ([2]; day 15 after 100 mg once daily for 14 days) of the same compound?
**A.** 43.40 ± 6.51 mmol·h/L

**Q.** And the “intensity of drug-related adverse events” value ([3]; cetagliptin 50 or 100 mg, sitagliptin 100 mg)?
**A.** mild

**Q.** What about the “number of drug-related AEs” value [3, 5] of the same compound?
**A.** 7 AEs

**Q.** And the “number of subjects reporting drug-related AEs” value [3, 5]?
**A.** 3 subjects

**Q.** And the half-life ([4]; human, in vivo, 100 mg oral once daily, day 14)?
**A.** 9.12 ± 0.664 h

**Q.** And the AUC(0-t) ([4]; human, plasma, 100 mg oral once daily, day 14, read-out: AUC0-24h)?
**A.** 3760 ± 748 ng·h/mL

**Q.** And the AUC(0-t) ([4]; human, plasma, 100 mg oral once daily, day 14, read-out: AUC0-t)?
**A.** 4290 ± 783 ng·h/mL

**Q.** What about the AUC(0-t) ([4]; human, plasma, 100 mg oral, day 1, read-out: AUC0-24h) of the same compound?
**A.** 3340 ± 522 ng·h/mL

**Q.** And the AUC(0-inf) ([4]; human, plasma, 100 mg oral once daily, day 14)?
**A.** 4380 ± 789 ng·h/mL

**Q.** And the Cmax ([4]; human, plasma, 100 mg oral once daily, day 14, read-out: Cmax,ss)?
**A.** 419 ± 137 ng/mL

**Q.** And the Vd/F ([4]; human, plasma, 100 mg oral once daily, day 14, read-out: Vz,ss/F)?
**A.** 362 ± 75.9 L

**Q.** And the Tmax ([4]; human, plasma, 100 mg oral, day 1, median (range), read-out: Tmax)?
**A.** 1.5 h

**Q.** What about the CLss/F ([4]; 100 mg oral once daily, day 14) of the same compound?
**A.** 27.5 ± 5.12 L/h

**Q.** What about the Cavg ([4]; 100 mg oral once daily, day 14) of the same compound?
**A.** 157 ± 31.2 ng/mL

**Q.** And the “Tmax,ss” value [4, 6]?
**A.** 3.00 (0.500-5.00) h

**Q.** And the Cmax ([4]; 100 mg oral, day 1)?
**A.** 394 ± 105 ng/mL

**Q.** What about the “time of daily dosing after which steady-state conditions were reached” value ([4]; once daily dosing, trough concentrations days 7, 10, 14) of the same compound?
**A.** 1 week

**Q.** And the “GLP-1 Baseline (value before dosing)” value (plasma active GLP-1; 100 mg group, day 1 before dosing)?
**A.** 0.442 ± 0.406 pM

**Q.** And the “R0h,ss (baseline plasma active GLP-1 on day 14)” value (plasma active GLP-1; 100 mg oral once daily, day 14)?
**A.** 1.700 ± 0.851 pM

**Q.** And the “△GLP-1-6h (change at 2 h after lunch)” value (plasma active GLP-1; 100 mg oral once daily, day 14)?
**A.** 6.553 ± 3.739 pM

**Q.** What about the “△GLP-1-12h (change at 2 h after dinner)” value (plasma active GLP-1; 100 mg oral once daily, day 14) of the same compound?
**A.** 5.775 ± 4.299 pM

**Q.** What about the “△GLP-1 Ravg,ss” value (plasma active GLP-1; 100 mg oral once daily, day 14) of the same compound?
**A.** 3.821 ± 2.361 pM

**Q.** What about the “△GLP-1 Rmax,ss” value (plasma active GLP-1; 100 mg oral once daily, day 14) of the same compound?
**A.** 8.080 ± 3.592 pM

**Q.** And the “R0h,ss (baseline plasma active GLP-1 on day 14)” value (plasma active GLP-1; 100 mg oral once daily, day 14, listed as sitagliptin)?
**A.** 1.700 pM

**Q.** And the “△GLP-1 TRmax,ss” value (plasma active GLP-1; [6])?
**A.** 5.00 (5.00-6.00) h

**Q.** And the “△GLP-1-6h (change at 2 h after lunch)” value (plasma active GLP-1; 100 mg oral, day 1)?
**A.** 3.491 ± 1.703 pM

**Q.** And the “△GLP-1-12h (change at 2 h after dinner)” value (plasma active GLP-1; 100 mg oral, day 1)?
**A.** 3.764 ± 2.490 pM

**Q.** And the “△GLP-1 AUEC0-24h” value (plasma active GLP-1; 100 mg oral, day 1)?
**A.** 61.2 ± 28.6 pM·h

**Q.** And the “△GLP-1 Rmax” value (plasma active GLP-1; 100 mg oral, day 1)?
**A.** 5.901 ± 2.375 pM

**Q.** And the “△GLP-1 TRmax” value (plasma active GLP-1; 100 mg oral, day 1, median (range))?
**A.** 7.00 (5.00-12.00) h
